Measurements as given in publication PMC11465516, “Kinetic and Structural Studies of the Plastidial Solanum tuberosum Phosphorylase” (ACS Omega, 2024).
Read-outs that look alike come from different tables or passages of the source.

How the values were obtained:
[1] = target: T1, stPho1 (plastidial Solanum tuberosum phosphorylase) (Solanum tuberosum, UniProt P04045); assay: stPho1 enzyme kinetics in the direction of glycogen synthesis; format: biochemical
T1 construct: stPho1 was purified from a natural source; from tissue; host or cells: Solanum tuberosum mature tubers
T1 sequence (P04045 51-966): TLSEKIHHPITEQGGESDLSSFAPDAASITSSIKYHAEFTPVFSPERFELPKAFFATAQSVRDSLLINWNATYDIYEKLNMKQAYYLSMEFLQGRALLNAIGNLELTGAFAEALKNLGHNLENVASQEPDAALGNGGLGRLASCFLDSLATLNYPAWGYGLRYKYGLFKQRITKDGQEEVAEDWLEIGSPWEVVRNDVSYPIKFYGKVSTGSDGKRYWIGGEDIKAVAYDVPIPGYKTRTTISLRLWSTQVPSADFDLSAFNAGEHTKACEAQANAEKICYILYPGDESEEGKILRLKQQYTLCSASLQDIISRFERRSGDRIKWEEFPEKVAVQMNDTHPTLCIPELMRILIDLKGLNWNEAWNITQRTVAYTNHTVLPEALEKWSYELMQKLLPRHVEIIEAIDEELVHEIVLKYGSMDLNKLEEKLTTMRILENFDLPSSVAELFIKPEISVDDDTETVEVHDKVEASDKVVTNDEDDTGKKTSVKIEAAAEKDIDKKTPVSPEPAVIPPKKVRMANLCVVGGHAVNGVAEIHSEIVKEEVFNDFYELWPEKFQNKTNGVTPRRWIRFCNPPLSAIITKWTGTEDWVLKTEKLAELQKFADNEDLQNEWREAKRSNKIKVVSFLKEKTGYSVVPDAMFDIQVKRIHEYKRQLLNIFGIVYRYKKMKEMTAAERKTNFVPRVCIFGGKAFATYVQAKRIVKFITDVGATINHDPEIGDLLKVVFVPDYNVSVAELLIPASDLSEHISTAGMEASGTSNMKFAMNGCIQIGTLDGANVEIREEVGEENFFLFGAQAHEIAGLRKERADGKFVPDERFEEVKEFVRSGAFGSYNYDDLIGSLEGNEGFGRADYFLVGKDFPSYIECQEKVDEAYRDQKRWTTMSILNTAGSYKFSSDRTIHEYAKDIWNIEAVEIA
From the text: (§1) In vitro, stPho1 can perform the reverse reaction in the presence of higher concentrations of Glc-1-P, where the enzyme adds glucose residues on glucans with direct release of orthophosphate ions, which can then be measured spectrophotometrically using the method of Saheki et al.[47] Starch granules are composed of two distinct glucose polymers, amylose and amylopectin.[48] Amylopectin is the major polymer in starch and has α-1,4-linked glucose chains with α-1,6-linked branches every 24–30 glucose units, whereas amylose is composed of long α-1,4-linked linear chains. Kinetic studies were performed using glycogen, whose structure is very similar to that of amylopectin but with more branches (every 8–12 glucose units) due to better solubility. Enzyme assays were performed at 30 °C in the direction of glycogen synthesis using 30 μg/mL of stPho1 or ΔPho1 in a 20 mM sodium citrate buffer (pH 6.0) containing 60 mM KCl, 0.6 mM ethylenediaminetetraacetic acid (EDTA), and 0.6 mM dithiothreitol, using constant concentrations of glycogen (0.2% w/v) and various concentrations of Glc-1-P (3, 4, 6, 10, and 15 mM for stPho1 and 1, 2, 3, 4, 6 mM for stPho1ΔL78) and inhibitors. Initial velocities were calculated from the pseudo-first-order rate constants (k) using the first-order rate equation ([A] = [A]0e^–kt), where [A]0 and [A] are the initial concentration of the sample and the sample’s concentration at various times, respectively, and t is the corresponding time (min) following a previously established protocol,[54] and the nonlinear regression program GraFit[50] with an explicit value was used for calculating the standard deviation of each point.[49]
(§2) To establish the optimum pH and temperature for enzyme activity, we first measured the enzymatic activity in the 4.5–8.5 pH range. Kinetic studies were performed in the direction of glycogen synthesis using 50 μg/mL of stPho1 using six different buffers (20 mM sodium acetate buffer for pH 4.5 and 5.5, 20 mM sodium citrate buffer for pH 6.0 and 6.5, and 20 mM Tris–HCl for pH 7.5 and 8.5) containing 60 mM KCl, 0.6 mM EDTA, and 0.6 mM dithiothreitol, using constant concentrations of glycogen (0.2% w/v) and Glc-1-P (14 mM) at 30 °C. […] To determine the optimum temperature for the activity, enzymatic assays were performed at temperatures 20, 30, 37, and 45 °C. Kinetic studies were performed in the direction of glycogen synthesis using 50 μg/mL of stPho1 in a 20 mM sodium citrate buffer (pH 6.0) containing 60 mM KCl, 0.6 mM EDTA, and 0.6 mM dithiothreitol, using constant concentrations of glycogen (0.2% w/v) and Glc-1-P (4 mM). […] Since mammalian muscle phosphorylase activity is dependent on the presence of the allosteric activator AMP,[35] we investigated whether the presence of AMP affects the stPho1 enzymatic activity. The effect was tested with 1 mM AMP, using 30 μg/mL of stPho1 in 20 mM sodium citrate buffer (pH 6.0) containing 60 mM KCl, 0.6 mM EDTA, and 0.6 mM dithiothreitol, using a saturating concentration of glycogen (0.2% w/v) and various concentrations of Glc-1-P (3, 6, 10, and 15 mM).

[2] = target: rabbit muscle glycogen phosphorylase b (rmGPb); conditions: cited from earlier work
stPho1ΔL78 [3] = target: T2, stPho1ΔL78 (Solanum tuberosum, UniProt P04045); assay: stPho1ΔL78 enzyme kinetics in the direction of glycogen synthesis; format: biochemical
T2 construct: the N-terminal (residues 23–446) and the C-terminal (residues 511–916); from tissue; host or cells: Solanum tuberosum mature tubers; purified stPho1 left about 4 weeks at room temperature to proteolyse
From the text: as §1, §2

rmGPa = target: rmGPa; design: method as in PMID 12930991, PMID 3805034, PMID 624732; conditions: cited from earlier work
mammalian enzyme (GP) = target: mammalian enzyme (GP); design: method as in PMID 32771768; conditions: cited from earlier work
stPho1ΔL78 [4] = assay: stPho1ΔL78 enzyme kinetics in the direction of glycogen synthesis; format: biochemical, Solanum tuberosum; conditions: direction of glycan synthesis
From the text: as §1, §2

[5] = 30 °C, pH 6.0, glycogen 0.2% w/v, various Glc-1-P, read-out: Ki
[6] = 30 °C, pH 6.0, glycogen 0.2% w/v
[7] = 30 °C, pH 6.0, glycogen 0.2% w/v, read-out: Km Glc-1-P

Question: For `OC[C@H]1O[C@@H]2O[C@H]3[C@H](O)[C@@H](O)[C@@H](O[C@H]4[C@H](O)[C@@H](O)[C@@H](O[C@H]5[C@H](O)[C@@H](O)[C@@H](O[C@H]6[C@H](O)[C@@H](O)[C@@H](O[C@H]7[C@H](O)[C@@H](O)[C@@H](O[C@H]8[C@H](O)[C@@H](O)[C@@H](O[C@H]1[C@H](O)[C@H]2O)O[C@@H]8CO)O[C@@H]7CO)O[C@@H]6CO)O[C@@H]5CO)O[C@@H]4CO)O[C@@H]3CO` [β-cyclodextrin], which Ki [1] is on record?
Answer: 0.0731 ± 0.0059 mM

Question: And the “Binding strength in stPho1 relative to rmGPb” value ([1]; stPho1 forms vs rmGPb)?
Answer: 200–450 times

Question: And the Ki ([2]; in the presence of 1 mM AMP)?
Answer: 14.1 mM

Question: And the Ki (stPho1ΔL78 [3])?
Answer: 0.031 ± 0.001 mM

Question: Which Ki ([2]; glycogen storage site ligands) does the source give for `OC[C@H]1O[C@@H]2O[C@H]3[C@H](O)[C@@H](O)[C@@H](O[C@H]4[C@H](O)[C@@H](O)[C@@H](O[C@H]5[C@H](O)[C@@H](O)[C@@H](O[C@H]6[C@H](O)[C@@H](O)[C@@H](O[C@H]7[C@H](O)[C@@H](O)[C@@H](O[C@H]1[C@H](O)[C@H]2O)O[C@@H]7CO)O[C@@H]6CO)O[C@@H]5CO)O[C@@H]4CO)O[C@@H]3CO` [α-cyclodextrin] here?
Answer: 47.1 mM

Question: With `OC[C@H]1O[C@@H]2O[C@H]3[C@H](O)[C@@H](O)[C@@H](O[C@H]4[C@H](O)[C@@H](O)[C@@H](O[C@H]5[C@H](O)[C@@H](O)[C@@H](O[C@H]6[C@H](O)[C@@H](O)[C@@H](O[C@H]7[C@H](O)[C@@H](O)[C@@H](O[C@H]8[C@H](O)[C@@H](O)[C@@H](O[C@H]9[C@H](O)[C@@H](O)[C@@H](O[C@H]1[C@H](O)[C@H]2O)O[C@@H]9CO)O[C@@H]8CO)O[C@@H]7CO)O[C@@H]6CO)O[C@@H]5CO)O[C@@H]4CO)O[C@@H]3CO` [γ-cyclodextrin] as the compound, how does the Ki ([2]; glycogen storage site ligands) read?
Answer: 7.4 mM

Question: With `OC[C@H]1O[C@H](O)[C@H](O)[C@@H](O)[C@@H]1O` [α-D-glucose] as the compound, how does the Ki [1, 5] read?
Answer: 42.8 ± 2.6 mM

Question: And the Ki ([2]; in the presence of 1 mM AMP)?
Answer: 3.2 mM

Question: What about the Ki (stPho1ΔL78 [3]; [5]) of the same compound?
Answer: 38.4 ± 1.5 mM

Question: Which Ki ([2]; glycogen storage site ligands) does the source give for maltoheptaose [maltoheptaose (G7)] here?
Answer: 1 mM

Question: Which Ki (rmGPa) does the source give for `C[C@H]1O[C@H](O[C@H]2[C@H](O)[C@@H](O)[C@@H](O[C@H]3[C@H](O)[C@@H](O)C(O)O[C@@H]3CO)O[C@@H]2CO)[C@H](O)[C@@H](O)[C@@H]1N[C@H]1C=C(CO)[C@@H](O)[C@H](O)[C@H]1O` (some centres unmarked) [acarbose] here?
Answer: 26 mM

Question: For `Nc1ncnc2c1ncn2[C@@H]1O[C@H](COP(=O)(O)O)[C@@H](O)[C@H]1O` [AMP], which “Effect on stPho1 enzymatic activity (Vmax, Km)” value ([1]; 1 mM AMP, glycogen 0.2% w/v, Glc-1-P 3-15 mM) is on record?
Answer: does not have any effect

Question: Which Ki ([2]; in the presence of 1 mM AMP) does the source give for `Cn1c(=O)c2c(ncn2C)n(C)c1=O` [caffeine] here?
Answer: 0.13 mM

Question: Which “Effect on the enzymatic activity of stPho1” value ([1]; up to a concentration of 1 mM) does the source give for `O=c1c(O)c(-c2ccc(O)c(O)c2)oc2cc(O)cc(O)c12` [quercetin] here?
Answer: did not have any effect

Question: What about the Ki (mammalian enzyme (GP)) of the same compound?
Answer: 0.032 to 0.069 mM

Question: Which “Km × 1000 glycogen” value ([1]; 30 °C, pH 6.0) does the source give for glycogen here?
Answer: 114.2 ± 7.6%

Question: What about the “Km × 1000 glycogen” value [2] of the same compound?
Answer: 12^1[63] %

Question: What about the “Affinity of stPho1ΔL78 relative to stPho1” value (stPho1ΔL78 [4]) of the same compound?
Answer: 2 times

Question: And the “Km × 1000 glycogen” value (stPho1ΔL78 [3]; 30 °C, pH 6.0)?
Answer: 60 ± 9%

Question: What does the source list for `O=P(O)(O)O[C@H]1O[C@H](CO)[C@@H](O)[C@H](O)[C@H]1O` [Glc-1-P, glucose-1-phosphate]?
Answer: Vmax Glc-1-P [1, 6]: 0.37 ± 0.01 µmol/min/mg; Km [1, 7]: 2300 ± 200 µM; Vmax Glc-1-P + 1 mM AMP ([1]; + 1 mM AMP, pH 6.0, glycogen 0.2% w/v): 0.39 ± 0.01 µmol/min/mg; Km ([1]; read-out: Km Glc-1-P + 1 mM AMP, + 1 mM AMP, pH 6.0, glycogen 0.2% w/v): 2400 ± 200 µM; Vmax Glc-1-P + 1 mM AMP ([2]; + 1 mM AMP): 64[63] μmol/min/mg; Vmax Glc-1-P [2]: 2.9[63] μmol/min/mg; Km ([2]; read-out: Km Glc-1-P + 1 mM AMP, + 1 mM AMP): 9000 µM; Km ([2]; read-out: Km Glc-1-P): 28000 µM; Vmax Glc-1-P (stPho1ΔL78 [3]; [6]): 0.32 ± 0.02 µmol/min/mg; Km (stPho1ΔL78 [3]; [7]): 1400 ± 200 µM
